How the values were obtained:
Type in all cases: in vivo
Conditions in all cases: 21 days after application
Lolium multiflorum = experiment: Further glasshouse test versus other ACCase-inhibiting herbicides, Table B2-1
Description: (§1) Further tests were employed to test the efficacy of a compound of Formula I versus other ACCase-inhibiting herbicides. The five main targets were Lolium multiflorum, Eleusine indica, Digitaria insularis, Sorghum halepense and Echinochloa crus-galli. Collectively, the populations contained all the major target-site resistance mutations affecting ACCase herbicides. Two L. multiflorum (LM-NTSR-1 and LM-NTSR-2) and one E. crus-galli (ECG-NTSR-1) populations were characterised exclusively by non-target-site resistance (“NTSR”). The target-site resistant L. multiflorum and E. indication populations were 100% homozygous for different ACCase mutations whilst the D. insularis, S. halepense and E. crus-galli samples contained a mixture of homozygous wild and mutant individuals at different genotypic frequencies. Additional underlying NTSR cannot be ruled out in the populations characterised by target-site resistance.
(§2) Around 50 seeds of each of the 24 weed populations were sown in 12-cm pots containing a mixture of peat and compost in a 1:1 ratio. The pots were watered, fertilised and kept in controlled glasshouse conditions set at 24° C./16 hr day, 18° C. night, 65% relative humidity, and a photon flux density of approximately 250 μmol quanta m^−2 s^−1 for Lolium multiflorum. The E. indica, D. insularis, S. halepense and E. crus-galli plants were kept in a separate glasshouse bay characterised by a 17 H photoperiod of 180 μmol m^−2 s^−1 with temperatures of 25° C. day and 19° C. night and 65% relative humidity. When the plants were at the two to four-leaf stage, they were treated with the various ACCase-inhibiting herbicides at 0, 15, 30, 60, 120 and 240 g ai ha^−1 in a spray cabinet mounted with a single mobile Teejet flat fan nozzle (11002VS) calibrated to deliver 200 L ha^−1 at 200 kPa. The L. multiflorum populations were treated by a compound of Formula Ic, clodinafop-propargyl, pinoxaden, cycloxydim and clethodim and the warm season grass weeds E. indica, D. insularis, S. halepense and E. crus-galli were sprayed with a Compound Ic and the commonly employed haloxyfop-methyl and clethodim. Three replicate pots were used per population. Plants were assessed for visual damage compared to the untreated control 21 days after application (0=0% damage; 100=100% damage).

Echinochloa Crus-galli = experiment: Further glasshouse test versus other ACCase-inhibiting herbicides, Table B2-5
Description: as §1, §2

Eleusine indica = experiment: Further glasshouse test versus other ACCase-inhibiting herbicides, Table B2-2
Description: as §1, §2

Digitaria insularis = experiment: Further glasshouse test versus other ACCase-inhibiting herbicides, Table B2-3
Description: as §1, §2

Sorghum halepense = experiment: Further glasshouse test versus other ACCase-inhibiting herbicides, Table B2-4
Description: as §1, §2

Structure (SMILES): CCc1cc(C)cc(CC)c1-c1c(OC(=O)C(C)(C)C)n2n(c1=O)CCOCC2 [Pinoxaden, pinoxaden]
- visual damage (Lolium multiflorum; biotype C2088R, 15 g/ha): 0%
- visual damage (Lolium multiflorum; biotype C2088R, 30 g/ha): 0%
- visual damage (Lolium multiflorum; biotype C2088R, 60 g/ha): 0%
- visual damage (Lolium multiflorum; biotype C2088R, 120 g/ha): 3%
- visual damage (Lolium multiflorum; biotype C2088R, 240 g/ha): 30%
- visual damage (Lolium multiflorum; biotype D2078G, 15 g/ha): 3%
- visual damage (Lolium multiflorum; biotype D2078G, 30 g/ha): 3%
- visual damage (Lolium multiflorum; biotype D2078G, 60 g/ha): 10%
- visual damage (Lolium multiflorum; biotype D2078G, 120 g/ha): 45%
- visual damage (Lolium multiflorum; biotype D2078G, 240 g/ha): 90%
- visual damage (Lolium multiflorum; biotype I1781L, 15 g/ha): 7%
- visual damage (Lolium multiflorum; biotype I1781L, 30 g/ha): 7%
- visual damage (Lolium multiflorum; biotype I1781L, 60 g/ha): 27%
- visual damage (Lolium multiflorum; biotype I1781L, 120 g/ha): 73%
- visual damage (Lolium multiflorum; biotype I1781L, 240 g/ha): 98%
- visual damage (Lolium multiflorum; biotype Sensitive, 15 g/ha): 100%
- visual damage (Lolium multiflorum; biotype Sensitive, 30 g/ha): 100%
- visual damage (Lolium multiflorum; biotype Sensitive, 60 g/ha): 100%
- visual damage (Lolium multiflorum; biotype Sensitive, 120 g/ha): 100%
- visual damage (Lolium multiflorum; biotype Sensitive, 240 g/ha): 100%
- visual damage (Lolium multiflorum; biotype W1999S, 15 g/ha): 0%
- visual damage (Lolium multiflorum; biotype W1999S, 30 g/ha): 0%
- visual damage (Lolium multiflorum; biotype W1999S, 60 g/ha): 0%
- visual damage (Lolium multiflorum; biotype W1999S, 120 g/ha): 7%
- visual damage (Lolium multiflorum; biotype W1999S, 240 g/ha): 33%
- visual damage (Lolium multiflorum; biotype W2027C, 15 g/ha): 0%
- visual damage (Lolium multiflorum; biotype W2027C, 30 g/ha): 10%
- visual damage (Lolium multiflorum; biotype W2027C, 60 g/ha): 62%
- visual damage (Lolium multiflorum; biotype W2027C, 120 g/ha): 93%
- visual damage (Lolium multiflorum; biotype W2027C, 240 g/ha): 100%
- visual damage (Lolium multiflorum; population LM-NTSR-1 (non-target-site resistance), 15 g/ha): 30%
- visual damage (Lolium multiflorum; population LM-NTSR-1 (non-target-site resistance), 30 g/ha): 85%
- visual damage (Lolium multiflorum; population LM-NTSR-1 (non-target-site resistance), 60 g/ha): 97%
- visual damage (Lolium multiflorum; population LM-NTSR-1 (non-target-site resistance), 120 g/ha): 100%
- visual damage (Lolium multiflorum; population LM-NTSR-1 (non-target-site resistance), 240 g/ha): 100%
- visual damage (Lolium multiflorum; population LM-NTSR-2 (non-target-site resistance), 15 g/ha): 0%
- visual damage (Lolium multiflorum; population LM-NTSR-2 (non-target-site resistance), 30 g/ha): 0%
- visual damage (Lolium multiflorum; population LM-NTSR-2 (non-target-site resistance), 60 g/ha): 0%
- visual damage (Lolium multiflorum; population LM-NTSR-2 (non-target-site resistance), 120 g/ha): 65%
- visual damage (Lolium multiflorum; population LM-NTSR-2 (non-target-site resistance), 240 g/ha): 53%

Structure (SMILES): COC(=O)C(C)Oc1ccc(Oc2ncc(C(F)(F)F)cc2Cl)cc1 (stereo not shown) [Haloxyfop-p-methyl, haloxyfop-methyl]
- visual damage (Echinochloa Crus-galli; biotype Sensitive, 15 g/ha): 100%
- visual damage (Echinochloa Crus-galli; biotype Sensitive, 30 g/ha): 100%
- visual damage (Echinochloa Crus-galli; biotype Sensitive, 60 g/ha): 100%
- visual damage (Echinochloa Crus-galli; biotype Sensitive, 120 g/ha): 100%
- visual damage (Echinochloa Crus-galli; biotype Sensitive, 240 g/ha): 100%
- visual damage (Echinochloa Crus-galli; biotype W2027C, 15 g/ha): 3%
- visual damage (Echinochloa Crus-galli; biotype W2027C, 30 g/ha): 75%
- visual damage (Echinochloa Crus-galli; biotype W2027C, 60 g/ha): 73%
- visual damage (Echinochloa Crus-galli; biotype W2027C, 120 g/ha): 100%
- visual damage (Echinochloa Crus-galli; biotype W2027C, 240 g/ha): 100%
- visual damage (Echinochloa Crus-galli; population ECG-NTSR-1 (non-target-site resistance), 15 g/ha): 73%
- visual damage (Echinochloa Crus-galli; population ECG-NTSR-1 (non-target-site resistance), 30 g/ha): 87%
- visual damage (Echinochloa Crus-galli; population ECG-NTSR-1 (non-target-site resistance), 60 g/ha): 100%
- visual damage (Echinochloa Crus-galli; population ECG-NTSR-1 (non-target-site resistance), 120 g/ha): 100%
- visual damage (Echinochloa Crus-galli; population ECG-NTSR-1 (non-target-site resistance), 240 g/ha): 100%
- visual damage (Eleusine indica; biotype D2078G, 15 g/ha): 0%
- visual damage (Eleusine indica; biotype D2078G, 30 g/ha): 0%
- visual damage (Eleusine indica; biotype D2078G, 60 g/ha): 60%
- visual damage (Eleusine indica; biotype D2078G, 120 g/ha): 95%
- visual damage (Eleusine indica; biotype D2078G, 240 g/ha): 88%
- visual damage (Eleusine indica; biotype G2096A, 15 g/ha): 3%
- visual damage (Eleusine indica; biotype G2096A, 30 g/ha): 3%
- visual damage (Eleusine indica; biotype G2096A, 60 g/ha): 23%
- visual damage (Eleusine indica; biotype G2096A, 120 g/ha): 30%
- visual damage (Eleusine indica; biotype G2096A, 240 g/ha): 53%
- visual damage (Eleusine indica; biotype I2041N, 15 g/ha): 0%
- visual damage (Eleusine indica; biotype I2041N, 30 g/ha): 7%
- visual damage (Eleusine indica; biotype I2041N, 60 g/ha): 0%
- visual damage (Eleusine indica; biotype I2041N, 120 g/ha): 10%
- visual damage (Eleusine indica; biotype I2041N, 240 g/ha): 0%
- visual damage (Eleusine indica; biotype Sensitive, 15 g/ha): 100%
- visual damage (Eleusine indica; biotype Sensitive, 30 g/ha): 100%
- visual damage (Eleusine indica; biotype Sensitive, 60 g/ha): 100%
- visual damage (Eleusine indica; biotype Sensitive, 120 g/ha): 100%
- visual damage (Eleusine indica; biotype Sensitive, 240 g/ha): 100%
- visual damage (Eleusine indica; biotype W2027C, 15 g/ha): 0%
- visual damage (Eleusine indica; biotype W2027C, 30 g/ha): 0%
- visual damage (Eleusine indica; biotype W2027C, 60 g/ha): 17%
- visual damage (Eleusine indica; biotype W2027C, 120 g/ha): 30%
- visual damage (Eleusine indica; biotype W2027C, 240 g/ha): 33%
- visual damage (Digitaria insularis; biotype Sensitive, 15 g/ha): 100%
- visual damage (Digitaria insularis; biotype Sensitive, 30 g/ha): 100%
- visual damage (Digitaria insularis; biotype Sensitive, 60 g/ha): 100%
- visual damage (Digitaria insularis; biotype Sensitive, 120 g/ha): 100%
- visual damage (Digitaria insularis; biotype Sensitive, 240 g/ha): 100%
- visual damage (Digitaria insularis; biotype W2027C, 15 g/ha): 76%
- visual damage (Digitaria insularis; biotype W2027C, 30 g/ha): 53%
- visual damage (Digitaria insularis; biotype W2027C, 60 g/ha): 93%
- visual damage (Digitaria insularis; biotype W2027C, 120 g/ha): 100%
- visual damage (Digitaria insularis; biotype W2027C, 240 g/ha): 100%
- visual damage (Sorghum halepense; biotype Sensitive, 15 g/ha): 93%
- visual damage (Sorghum halepense; biotype Sensitive, 30 g/ha): 100%
- visual damage (Sorghum halepense; biotype Sensitive, 60 g/ha): 100%
- visual damage (Sorghum halepense; biotype Sensitive, 120 g/ha): 100%
- visual damage (Sorghum halepense; biotype Sensitive, 240 g/ha): 100%
- visual damage (Sorghum halepense; biotype W2027C, 15 g/ha): 38%
- visual damage (Sorghum halepense; biotype W2027C, 30 g/ha): 50%
- visual damage (Sorghum halepense; biotype W2027C, 60 g/ha): 68%
- visual damage (Sorghum halepense; biotype W2027C, 120 g/ha): 68%
- visual damage (Sorghum halepense; biotype W2027C, 240 g/ha): 78%

— US20260215428A1, “WEED CONTROL METHOD” (SYNGENTA CROP PROTECTION AG, priority 2023, published 2026)
